Laboratory results reported in US7728043B2, “Methods for treatment of beta-amyloid protein-induced ocular disease” (priority 1999, dated 2010).
“Also recorded” adds a separate entry of the source.

Legend:
PC12 cells = experiment: MTT reduction assay, βA peptide-induced toxicity, PC12 cells; format: cell-based, rat
Description: (§1) The degree of βA insult was measured by 3-[4,5-dimethylthiazol-2-yl]-2,5-diphenyltetrazolium bromide (MTT) reduction assay. […] The detection of cell growth or cell death can be determined by observing the conversion of MTT to the colored product, MTT formazan, the concentration of which can be measured […] at 550 nm.
(§2) Cells were incubated in MTT solution (5 mg/ml) at 37° C. for 2 hours. During this time, cells were observed under a microscope every 15 min. Cells were incubated in Lysing buffer (100 μl) overnight at 37° C. Colorimetric determination of MTT reduction was made at 550 nm.
(§3) PC12 rat pheochromocytoma and IMR32 human neuroblastoma cells were obtained from the American Type Culture Collection (ATCC). HUVEC normal umbilical human vein endothelial cells were obtained from Clonetics (San Diego, Calif.). Cells were routinely cultured on a tissue culture plate (Corning, N.Y., N.Y.). PC12 cells were grown in high glucose Dulbecco's Modified Eagle Medium (DMEM), 10% horse serum, 5% fetal calf serum, and 1% penicillin/streptomycin. IMR32 cells were grown in 90% DMEM and 10% fetal calf serum with 1% penicillin/streptomycin. HUVEC cells were grown in EGM-2 Bullet Kit (Clonetics, San Diego, Calif.).
PC12 cells were cultured routinely on polystyrene-coated Corning tissue culture plates. […] The 96-well plates were coated with rat tail collagen (Boehringer Mannheim) in order to promote uniform PC12 cell attachment and growth.

IMR32 cells = experiment: MTT reduction assay, βA peptide-induced toxicity, IMR32 cells; format: cell-based, human
Description: as §1, §2, §3

HUVEC cells = experiment: MTT reduction assay, βA peptide-induced toxicity, HUVEC cells; format: cell-based, human; settings: Table 1, turmeric-derived natural product compounds
Description: as §1, §2, §3

[1] = Antioxidant assay, scavenging of DPPH free radicals
Description: Kim et al., Neurosci Lett 303, 57 (2001) and Barik et al., Free Radic Biol Med 39, 811 (2005).
Using an antioxidant assay, the antioxidant potency of the compounds of the invention was evaluated. 1,1-Diphenyl-2-picrylhydrazyl (DPPH) is known to generate stable free radicals in aqueous and ethanolic solutions. The ability of the compounds of the invention to scavenge these free radicals was measured by observing the optical density change of DPPH radicals at 515 nm. Kim et al., Neurosci Lett 303, 57 (2001) and Barik et al., Free Radic Biol Med 39, 811 (2005).
The samples were prepared in various concentrations (200, 20, 2.0, and 0.2 μg/ml) by serial dilution of a stock solution (5 mg/ml) and were tested by the following procedure. Reaction mixtures containing test compounds (dissolved in DMSO) and 300 μM DPPH ethanolic solution in 96-well microtiter plates were incubated at 37° C. for 30 min. and absorbance was measured at 515 nm. Percent inhibition by sample treatment was determined by comparison with a DMSO-treated […] control group. IC50 values were determined from percent inhibition by sample. IC50 values denote the concentration of the tested compound that was required to scavenge 50% of the DPPH free radicals.

[2] = tested on: primary cortical rat neuronal cells; experiment: Protection of primary cortical neuronal cells against βA peptide (1-42) insult; format: cell-based; settings: compound at 5 μg/ml; βA peptide (1-42) 10 μg/ml
Description: as §2
Primary cortical rat neuronal cells were obtained in the following manner. Dissociated primary neuronal cell cultures were established from 18-day-old Sprague-Dawley rat fetuses. The pups were delivered by caesarean section while the dam was anesthetized with ether. Hippocampal tissue from embryonic day 18 Sprague-Dawley rat pups was dissected and then rinsed in cold Ca^2+/Mg^2+-free Hank's balanced salt solution supplemented with 20 mM HEPES, 4.2 mM sodium bicarbonate, 1 mM pyruvate, and 3 mg/ml bovine serum albumin (BSA). Following gentle trituration of the tissue with a constricted pipette in cold buffer, two volumes of 10% fetal bovine serum (FBS) in DMEM were added to the suspension. After the suspension settled for 2 minutes, the supernatant was collected and centrifuged for 2 min. at 200×g. The cell pellets were resuspended in serum-free DMEM (pH 7.3), supplemented with 2.4 mg/ml BSA and a modification of Brewer's […] defined components (with 250 nM vitamin B12 and without catalase, glutathione, and superoxide dismutase). Cells were plated at a density of 15,000 cells/cm^2 and grown at 37° C. After 24 hours of incubation to allow cell attachment, the serum-containing medium was replaced by defined medium with DMEM/F12 containing bovine transferrin (100 μg/ml), bovine insulin (5 μg/ml), putrescine (0.1 mM), progesterone (10 nM), sodium selenite (30 nM), sodium pyruvate (1 mM), and potassium bicarbonate (15 mM). Cells maintained for extended periods of time were fed twice a week by replacing ⅓ of the medium with fresh medium.

[3] = Partition coefficient between water and octane alcohol (log P); format: physicochemical
Description: According to this example, the ability of the compounds of the invention to pass through the blood brain barrier was measured. The ability of compounds to cross the blood brain barrier is represented by the log of the partition coefficient (P) of a molecule of the invention between water and octane alcohol. […] Accordingly, the octane alcohol fraction contained more than 1000 times as much of the compounds as the water fraction. […] See Hau et al., Regul Toxicol Pharmacol 35, 273 (2002) and Salminen et al., J Pharm Biomed Anal 15, 469 (1997).

[4] = tested on: cells treated with βA peptide; experiment: Protection of cells from βA peptide insult, statements in words (MTT assay, cells not singled out); format: cell-based; settings: for Protection of cells from βA peptide-induced toxicity, in words: MTT reduction assay, PC12, IMR32, HUVEC cells where named in the sentence; for Microscopic analysis of βA peptide treated cells (MTT formazan granules in the cytosole): synthesized curcuminoid compounds, compared with positive and negative control
Description: as §1, §2

[5] = Table 1, turmeric-derived natural product compounds
[6] = Table 1, turmeric-derived natural product compounds, concentration for 50% cell viability
[7] = Table 2, synthesized curcuminoids
[8] = Table 1, turmeric-derived natural product compounds, scavenging 50% of DPPH free radicals
[9] = Table 2, synthesized curcuminoids, DPPH

Structure (SMILES)	Anti-βA peptide(1-42) ED50 PC12 (PC12 cells; [5]) [µg/mL]	Anti-βA peptide(25-35) ED50 PC12 (PC12 cells; [6]) [µg/mL]	Anti-βA peptide(1-42) ED50 PC12 (PC12 cells; [7]) [µg/mL]	Anti-βA peptide(25-35) ED50 PC12 (PC12 cells; [7]) [µg/mL]	Anti-βA peptide(25-35) ED50 IMR32 (IMR32 cells; [5]) [µg/mL]	Anti-βA peptide(1-42) ED50 IMR32 (IMR32 cells; [7]) [µg/mL]	Anti-βA peptide(25-35) ED50 IMR32 (IMR32 cells; [7]) [µg/mL]	Anti-βA peptide(1-42) ED50 HUVEC (HUVEC cells) [µg/mL]	Anti-βA peptide(25-35) ED50 HUVEC (HUVEC cells) [µg/mL]	Antioxidant IC50 [1, 8] [µg/mL]	Antioxidant IC50 [1, 9] [µg/mL]	Antioxidant activity (DPPH free radical scavenging), in words ([1]; optical density change of DPPH radicals at 515 nm)	Protection of primary cortical neuronal cells against βA peptide (1-42) insult [2]	logP [3]	Protection of cells from βA peptide-induced toxicity, in words [4]	Microscopic analysis of βA peptide treated cells (MTT formazan granules in the cytosole) [4]
O=C(C=Cc1ccc(O)cc1)CC(=O)C=Cc1ccc(O)cc1 [Compound 3, 1,7-bis(4-hydroxyphenyl)-1,6-heptadiene-3,5-dione]	3.5	2.0	4.5	3.0	2.5	3.5	3.0	2.0	2.4	>200	32.6	significant antioxidant activity	protected	3.1	protected	effectively protect
O=C(C=Cc1ccc(O)cc1)CC(=O)CCc1ccc(O)cc1 [Compound 4, 1,7-bis(4-hydroxyphenyl)-1-heptene-3,5-dione]	1.0	0.5	1.0	0.5	1.2	2.0	1.5	1.0	0.8	>200	>200		protected		protected; also recorded: best protection	effectively protect
